Laboratory results taken from US20230172204A1 (BASF SE, priority 2020, published 2023).

Tests used:
[1] = tested on: Phakopsora pachyrhizi (F129L); experiment: Protective control of soybean rust on soybeans (PHAKPA P2); assay type: in vivo; conditions: soybean rust F129L; for % PHAKPA (F129L) Disease level P2 at 4 ppm: protective P2, 4 ppm; for % PHAKPA (F129L) Disease level P2 at 16 ppm: protective P2, 16 ppm
[2] = tested on: Phakopsora pachyrhizi (F129L); experiment: Protective control of soybean rust on soybeans (PHAKPA P6); assay type: in vivo; conditions: soybean rust F129L; for % PHAKPA (F129L) Disease level P6 at 4 ppm: protective P6, 4 ppm; for % PHAKPA (F129L) Disease level P6 at 16 ppm: protective P6, 16 ppm

Row | Compound | % PHAKPA (F129L) Disease level P2 at 4 ppm [1] | % PHAKPA (F129L) Disease level P2 at 16 ppm [1] | % PHAKPA (F129L) Disease level P6 at 4 ppm [2] | % PHAKPA (F129L) Disease level P6 at 16 ppm [2]
1 | CNC(=O)/C(=N/OC)c1cccc(C)c1CO/N=C(\C)c1ccc(Br)cc1 [compound 168] | 2% | 0% | 5% | 0%
2 | CO/N=C(/C(=O)OC)c1cccc(C)c1CO/N=C(\C)c1c(F)cc(F)cc1F [compound 169] | 77% | 0% | 77% | 0%
3 | CNC(=O)/C(=N/OC)c1cccc(C)c1CO/N=C(\C)c1c(F)cc(F)cc1F [compound 170] | 9% | 0% | 4% | 0%
4 | CO/N=C(/C(=O)OC)c1cccc(C)c1CO/N=C(\C)c1c(Cl)cccc1Cl [compound 171] | 100% | 100% | 80% | 50%
5 | C#Cc1ccc(/C(C)=N/OCc2c(C)cccc2/C(=N\OC)C(=O)OC)cc1 [compound 172] | 35% | 1% | 83% | 12%
6 | CNC(=O)/C(=N/OC)c1cccc(C)c1CO/N=C(\C)c1c(Cl)cccc1Cl [compound 173] | 100% | 53% | 97% | 17%
7 | CO/N=C(/C(=O)OC)c1cccc(C)c1CO/N=C(\C)c1c(C)cccc1C [compound 174] | 100% | 100% | 80% | 70%
8 | CCc1ccccc1/C(C)=N/OCc1c(C)cccc1/C(=N\OC)C(=O)OC [compound 175] | 100% | 97% | 100% | 93%
9 | CCc1ccccc1/C(C)=N/OCc1c(C)cccc1/C(=N\OC)C(=O)NC [compound 176] | 100% | 100% | 100% | 90%
10 | CO/N=C(/C(=O)OC)c1cccc(C)c1CO/N=C(\C)c1cccc(F)c1F [compound 177] | 100% | 21% | 87% | 47%
11 | CNC(=O)/C(=N/OC)c1cccc(C)c1CO/N=C(\C)c1cccc(F)c1F [compound 178] | 6% | 0% | 2% | 0%
12 | CNC(=O)/C(=N/OC)c1cccc(C)c1CO/N=C(\C)c1ccc(C(C)=O)cc1 [compound 179] | 100% | 47% | 90% | 28%
13 | CO/N=C(/C(=O)OC)c1cccc(C)c1CO/N=C(\C)c1cc(C(F)(F)F)cc(F)c1F [compound 180] | 40% | 7% | 5% | 0%
14 | CNC(=O)/C(=N/OC)c1cccc(C)c1CO/N=C(\C)c1ccc(/C(C)=N/OC)cc1 [compound 182] | 6% | 0% | 13% | 0%
15 | CCc1ccc(/C(C)=N/OCc2c(C)cccc2/C(=N\OC)C(=O)OC)cc1 [compound 183] | 16% | 0% | 38% | 2%
16 | CNC(=O)/C(=N/OC)c1cccc(C)c1CO/N=C(\C)c1ccccc1OC(F)(F)F [compound 184] | 42% | 4% | 16% | 1%
17 | CNC(=O)/C(=N/OC)c1cccc(C)c1CO/N=C(\C)c1cc(C(F)(F)F)ccc1C1CC1 [compound 185] | 100% | 67% | 90% | 77%
18 | CNC(=O)/C(=N/OC)c1cccc(C)c1CO/N=C(\COC)c1cccc(C(F)(F)F)c1 [compound 186] | 1% | 0% | 2% | 0%

Row | Compound | % PHAKPA (F129L) Disease level P2 at 4 ppm [1] | % PHAKPA (F129L) Disease level P2 at 16 ppm [1] | % PHAKPA (F129L) Disease level P6 at 4 ppm [2] | % PHAKPA (F129L) Disease level P6 at 16 ppm [2]
19 | CO/N=C(/C)c1ccccc1/C(C)=N/OCc1c(C)cccc1/C(=N\OC)C(=O)OC [compound 187] | 100% | 100% | 90% | 90%
20 | CC/C(=N\OCc1c(C)cccc1/C(=N\OC)C(=O)NC)c1ccccc1C(F)(F)F [compound 189] | 82% | 28% | 97% | 37%
21 | CNC(=O)/C(=N/OC)c1cccc(C)c1CO/N=C(\C)c1cc(C(F)(F)F)ccc1Cl [compound 190] | 20% | 0% | 45% | 3%
22 | COC/C(=N\OCc1c(C)cccc1/C(=N\OC)C(=O)OC)c1cccc(C(F)(F)F)c1 [compound 191] | 77% | 2% | 83% | 22%
23 | C#Cc1cc(C#C)cc(/C(C)=N/OCc2c(C)cccc2/C(=N\OC)C(=O)NC)c1 [compound 193] | 15% | 0% | 14% | 0%
24 | C#Cc1ccc(/C(C)=N/OCc2c(C)cccc2/C(=N\OC)C(=O)NC)cc1 [compound 196] | 1% | 0% | 11% | 5%
25 | CNC(=O)/C(=N/OC)c1cccc(C)c1CO/N=C(\C)c1cc(C(F)(F)F)cc(F)c1F [compound 197] | 0% | 0% | 2% | 0%
26 | CO/N=C(/C(=O)OC)c1cccc(C)c1CO/N=C(\C)c1cc(C(F)(F)F)ccc1F [compound 198] | 4% | 1% | 0% | 0%
27 | CNC(=O)/C(=N/OC)c1cccc(C)c1CO/N=C(\C)c1cc(C(F)(F)F)ccc1F [compound 199] | 0% | 0% | 0% | 0%
28 | CO/N=C(/C(=O)OC)c1cccc(C)c1CO/N=C(\C)c1cc(C(F)(F)F)ccc1Cl [compound 200] | 93% | 73% | 100% | 77%
29 | CNC(=O)/C(=N/OC)c1cccc(C)c1CO/N=C(\C)c1c(F)cccc1OC(F)F [compound 202] | 90% | 22% | 100% | 47%
30 | CO/N=C(/C(=O)OC)c1cccc(C)c1CO/N=C(\C)c1cc(C)ccc1C [compound 203] | 87% | 32% | 93% | 32%
31 | CC/C(=N\OCc1c(C)cccc1/C(=N\OC)C(=O)OC)c1cccc(C(F)(F)F)c1 [compound 204] | 50% | 4% | 80% | 5%
32 | CO/N=C(/C(=O)OC)c1cccc(C)c1CO/N=C(/c1cccc(C(F)(F)F)c1)C(C)C [compound 206] | 100% | 67% | 100% | 90%
33 | CNC(=O)/C(=N/OC)c1cccc(C)c1CO/N=C(/c1cccc(C(F)(F)F)c1)C(C)C [compound 207] | 40% | 11% | 83% | 5%
34 | C=Cc1ccccc1/C(C)=N/OCc1c(C)cccc1/C(=N\OC)C(=O)NC [compound 211] | 100% | 43% | 100% | 77%
35 | CO/N=C(/C(=O)OC)c1cccc(C)c1CO/N=C(\C)c1c(F)cccc1F [compound 213] | 50% | 3% | 40% | 11%
36 | CNC(=O)/C(=N/OC)c1cccc(C)c1CO/N=C(\C)c1c(F)cccc1F [compound 214] | 14% | 0% | 28% | 4%
